Series [1] deals with RAW264.7. Put plainly: Cytotoxicity against mouse RAW264.7 cells at anti-inflammatory IC50 after 19 hrs by MTT assay. The conditions noted are these: raw264.7, 19 h. The series is classed as cell-based.
Series [2] relates to RAW264.7. Put plainly: Anti-inflammatory activity in mouse RAW264.7 cells assessed as inhibition of LPS-induced NO production preincubated for 1 hr followed by LPS-stimulation and measured after 18 hrs by Griess reagent-based assay. It is filed as functional, cell-based. (Nitrite, measured by Griess reagent, commonly stands in for NO production.)

The structures appear in SMILES notation.

A word on the IC50: it is the concentration that gives 50% inhibition. Consider `C=C1CC[C@]2(C(=O)O[C@@H]3O[C@H](CO[C@@H]4O[C@H](CO)[C@@H](O[C@@H]5O[C@@H](C)[C@H](O)[C@@H](O)[C@H]5O)[C@H](O)[C@H]4O)[C@@H](O)[C@H](O)[C@H]3O)CC[C@]3(C)C(=CC[C@@H]4[C@@]5(C)CC[C@H](O)C(C)(C)[C@@H]5CC[C@]43C)[C@@H]2C1`, for which the Activity result in the series with RAW264.7 [1] was “Non-Toxic”. The 50% inhibitory concentration (IC50) with RAW264.7 [2] was more than 50 µM.
Take `C[C@@H]1O[C@@H](O[C@H]2[C@H](O[C@H]3CC[C@@]4(C)[C@@H](CC[C@]5(C)[C@@H]4CC=C4[C@@H]6CC(C)(C)CC[C@]6(C(=O)O[C@@H]6O[C@H](CO[C@@H]7O[C@H](CO)[C@@H](O[C@@H]8O[C@@H](C)[C@H](O)[C@@H](O)[C@H]8O)[C@H](O)[C@H]7O)[C@@H](O)[C@H](O)[C@H]6O)CC[C@]45C)[C@]3(C)CO)OC[C@H](O)[C@@H]2O)[C@H](O)[C@H](O)[C@H]1O` [KALOPANAXSAPONIN B]: the Activity entry with RAW264.7 [1] is reported as “Non-Toxic”. Also, in the series on RAW264.7 [2], the IC50 was more than 50 µM.
In the case of `CC1(C)CC[C@]2(C(=O)O[C@@H]3O[C@H](CO[C@@H]4O[C@H](CO)[C@@H](O)[C@H](O)[C@H]4O)[C@@H](O)[C@H](O)[C@H]3O)CC[C@]3(C)C(=CC[C@@H]4[C@@]5(C)CC[C@H](O[C@@H]6OC[C@H](O)[C@H](O)[C@H]6O)[C@@](C)(CO)[C@@H]5CC[C@]43C)[C@@H]2C1`, the Activity entry with RAW264.7 [1] is listed as “Non-Toxic”. The IC50 in the series on RAW264.7 [2] was more than 50 µM.
For the molecule `C[C@@H]1O[C@@H](O[C@H]2[C@H](O)[C@@H](O)[C@H](OC[C@H]3O[C@@H](OC(=O)[C@]45CCC(C)(C)C[C@H]4C4=CC[C@@H]6[C@@]7(C)CC[C@H](O)[C@@](C)(CO)[C@@H]7CC[C@@]6(C)[C@]4(C)CC5)[C@H](O)[C@@H](O)[C@@H]3O)O[C@@H]2CO)[C@H](O)[C@H](O)[C@H]1O` [KIZUTA CIRENSENOSIDE O SAPONIN K3], the Activity entry in the series on RAW264.7 [1] is “Non-Toxic”. In addition, in the series on RAW264.7 [2], the IC50 is more than 50 µM.
The matching figures for `C=C1CC[C@]2(C(=O)O[C@@H]3O[C@H](CO[C@@H]4O[C@H](CO)[C@@H](O)[C@H](O)[C@H]4O)[C@@H](O)[C@H](O)[C@H]3O)CC[C@]3(C)C(=CC[C@@H]4[C@@]5(C)CC[C@H](O)C(C)(C)[C@@H]5CC[C@]43C)[C@@H]2C1`: “Non-Toxic” and more than 50 µM.
As for `C=C1CC[C@]2(C(=O)O[C@@H]3O[C@H](CO[C@@H]4O[C@H](CO)[C@@H](O)[C@H](O)[C@H]4O)[C@@H](O)[C@H](O)[C@H]3O)CC[C@]3(C)C(=CC[C@@H]4[C@@]5(C)CC[C@H](O)[C@@](C)(CO)[C@@H]5CC[C@]43C)[C@@H]2C1`, in the series on RAW264.7 [1], the Activity entry is “Non-Toxic”. Moreover, the concentration for half-maximal inhibition (IC50) in the series with RAW264.7 [2] is more than 50 µM.
Regarding `CC1(C)CC[C@]2(C(=O)O)CC[C@]3(C)C(=CC[C@@H]4[C@@]5(C)CC[C@H](O)[C@@](C)(CO[C@@H]6O[C@H](CO)[C@@H](O)[C@H](O)[C@H]6O)[C@@H]5CC[C@]43C)[C@@H]2C1`, the Activity result with RAW264.7 [1] is on record as “Non-Toxic”. In the series on RAW264.7 [2], the IC50 is more than 50 µM.
The matching figures for `C[C@@H]1O[C@@H](O[C@H]2[C@H](O)[C@@H](O)[C@H](OC[C@H]3O[C@@H](OC(=O)[C@]45CCC(C)(C)C[C@H]4C4=CC[C@@H]6[C@@]7(C)CC[C@H](O[C@@H]8OC[C@H](O)[C@H](O)[C@H]8O)[C@@](C)(CO)[C@@H]7CC[C@@]6(C)[C@]4(C)CC5)[C@H](O)[C@@H](O)[C@@H]3O)O[C@@H]2CO)[C@H](O)[C@H](O)[C@H]1O` [CAULOSIDE D]: “Non-Toxic” and more than 50 µM.
With `CC1(C)CC[C@]2(C(=O)O)CC[C@]3(C)C(=CC[C@@H]4[C@@]5(C)CC[C@H](O)[C@@](C)(CO[C@@H]6O[C@H](CO[C@@H]7O[C@H](CO)[C@@H](O)[C@H](O)[C@H]7O)[C@@H](O)[C@H](O)[C@H]6O)[C@@H]5CC[C@]43C)[C@@H]2C1`, the Activity result in the series on RAW264.7 [1] was “Non-Toxic”. Besides, in the series with RAW264.7 [2], the concentration for half-maximal inhibition (IC50) was more than 50 µM.
